US20250049027A1, “PLANT PATHOGEN COMPOSITION” (Robjulz Pty. Ltd., priority 2021, published 2025)

Assays:
[1] = system: Fusarium oxysporum f. sp. cubense TR4 (FocTR4); experiment: In vitro poison agar test, mycelial growth on potato dextrose agar; assay type: cell-based; conditions: concluded from the in vitro data; ppm of BAC
Experimental: In vitro tests were performed against Fusarium oxysporum f. sp. cubense TR4 (FocTR4), the fungal pathogen responsible for Panama wilt of banana, using a poison agar method as discussed below.
Potato dextrose agar (PDA, 39 g) medium (Difco™) was added to distilled or deionized water (1 L) in accordance with the manufacturer's instruction before autoclaving at 121° C. for 20 minutes and cooling to 50-55° C. in a water bath. To the resulting mixture was added the stock solution of Example 3, in accordance with the amounts in Table 5, or sterile distilled water (control sample). Five replications for each treatment were prepared, and the experiment was carried out using a completely randomized design (CRD).
Mycelial growth in each treatment was recorded within seven days after incubation at room temperature with natural dark/light cycle in reference to the growth of the control. Percent inhibition of diameter growth (% PIDG) was calculated as described above. Analyses of statistical data were carried out using the standard analysis of variance (ANOVA) procedure using SAS software (version 9.2).

P. palmivora [2] = experiment: In vivo testing using durian fruit, pre-treated then inoculated; design: species or system Phytophthora palmivora; conditions: concluded from the durian fruit data; ppm of BAC
Experimental: Healthy durian fruits were harvested carefully from a durian plantation, for artificial inoculation with Phytophthora isolate DB4. Untreated durian fruits with five replicates were used as the control. Fungicidal compositions were prepared, as for Example 5, then applied to the fruit surface. Durian fruits with sterile distilled water were included as a negative control. The pre-treated fruits were inoculated with a 12 mm plug of a 5-day old culture of P. palmivora grown on CMA plates by placing over the intact skin at the centre of each fruit. The resulting durian fruits were kept in moist plastic trays, covered with black polythene sheets to maintain moisture level, and incubated at 25±2° C. in the dark for seven days. Measurement of lesions were made at seven days after inoculation.

[3] = system: Fusarium oxysporum f. sp. cubense TR4 (FocTR4); experiment: In vivo preventative testing using banana plants, soil application before inoculation; conditions: concluded from the banana plant data; ppm of BAC
Experimental: The efficacy of a fungicidal composition of the present invention was tested against Fusarium oxysporum f. sp. cubense TR4 (FocTR4), the fungal pathogen responsible for Panama wilt of banana, for use as a preventative.
Banana seedlings (cv. Berangan, 2-month-old) were obtained from Malaysian Agricultural Research and Development Institute (MARDI). Soil was prepared in polybags and sterilized using a large capacity autoclave at the Institute of Plantation Sciences (IKP). Seedlings were allowed to acclimatize in a greenhouse for approximately two months, reaching a height of about 50 cm, before being inoculated with FocTR4. Plants were watered with a dripping system, and fertilized with NPK.
The seedlings were used in a randomized complete block design (RCBD) with seven treatments: healthy control, disease control, four concentrations (100 ppm, 300 ppm, 500 ppm and 700 ppm), and a commercial fungicide. For the four concentrations tested, compositions were either a test solution as described in Example 2, or a polymer control (as described in Example 1 with acrylamide polymer omitted). […]
Four replications were used for each treatment, with four plants per replicate. […] Seedlings were assessed after inoculation to measure disease incidence (DI) and disease severity (DSI). […] DSI was measured by estimating the proportion of plant surface area was infected. […]

Phytophthora palmivora = experiment: In vitro poison agar test, mycelial growth on corn meal agar; assay type: cell-based; conditions: concluded from the in vitro data; ppm of BAC
Experimental: In vitro tests were performed against Phytophthora palmivora, the pathogen responsible for pod rot of cocoa, stem canker of durian and rubber, and foot rot of pepper, using a poison agar method as discussed below.
A stock solution was prepared with (a) BAC (50% w/v in water, 180 mL), (b) STPP (25 g), and (c) BL8 (120 mL), with enough water to provide a total volume of 1 L.
Corn meal agar (CMA, 17 g) medium (Oxoid™, Thermo Scientific) was added to distilled or deionized water (1 L) in accordance with the manufacturer's instruction before autoclaving at 121° C. for 20 minutes and cooling to 50-55° C. in a water bath. To the resulting mixture was added the stock solution described above, in accordance with the amounts in Table 3, or sterile distilled water (control sample). Five replications for each treatment were prepared, and the experiment was carried out using a completely randomized design (CRD).
Mycelial growth in each treatment was recorded within seven days after incubation at room temperature with natural dark/light cycle in reference to the growth of the control. Percent inhibition of diameter growth (% PIDG) was calculated as follows:
[formula] • where: dc=average diameter of fungal colony in the control plate, and • dt=average diameter of fungal colony in the treatment plate. […]

P. palmivora [4] = experiment: In vivo testing using cocoa pods, pre-treated then inoculated; design: species or system Phytophthora palmivora
Experimental: The efficacy of a fungicidal composition of the present invention was tested against P. palmivora. Healthy, green cocoa pods were picked, prior to artificial inoculation with Phytophthora isolate M5. One highly virulent P. palmivora isolate (MI 5 from Sabah) with 5 replicates (pods) were used as the control.
Each pod was washed carefully three times with sterile distilled water, the surface was disinfected for 2 minutes in 75% ethanol, and pods were air-dried at room temperature (25±2° C.). Different concentrations of the composition of the present invention (0-540 ppm) were prepared as for Examples 3 and 4, using the composition described in Example 1 which contained a polymeric film-forming agent, and spread on the pod surface to cover the whole pod. Cocoa pods with sterile distilled water were included as a negative control. After spreading, the pre-treated pods were inoculated with a 12 mm plug of 5-day old culture of P. palmivora grown on CMA plates by placing over the intact skin at the centre of each cocoa pod (see FIGS. 3A-I). The resulting pods were kept in moist plastic trays, covered with black polythene sheets to maintain moisture level, and incubated at 25±2° C. in the dark for seven days.

benzalkonium chloride [BAC]
effective concentration for controlling a fungus such as Fusarium [1]: 500-2000 ppm | effective concentration for controlling an oomycete such as P. palmivora when applied to the fruit (P. palmivora [2]): 15-750 ppm | effective concentration for controlling a fungus such as Fusarium, when applied to the soil [3]: 500-2000 ppm | effective concentration for controlling an oomycete such as Phytophthora (Phytophthora palmivora): 15-750 ppm | pods showing fungal infection around plug (P. palmivora [4]; cocoa pods treated with 18 ppm BAC, FIG. 3B): four out of five pods show fungal infection around plug | pods showing fungal infection around plug (P. palmivora [4]; cocoa pods treated with 36 ppm BAC, FIG. 3C): four out of five pods show fungal infection around plug | pods showing fungal infection around plug (P. palmivora [4]; cocoa pods treated with 54 ppm BAC, FIG. 3D): three out of five pods show fungal infection around plug | pods showing fungal infection around plug (P. palmivora [4]; cocoa pods treated with 72 ppm BAC, FIG. 3E): two out of five pods show fungal infection around plug | pods showing fungal infection around plug (P. palmivora [4]; cocoa pods treated with 90, 180, 360 and 540 ppm BAC, FIG. 3F-I): no fungal infection around plug | effective concentration for controlling an oomycete such as P. palmivora when applied to the fruit (P. palmivora [4]; concluded from the cocoa pod data, ppm of BAC): 15-750 ppm
